The target of test [1] is T1, human ERK-2 (Mitogen Activated Kinase 1) (Homo sapiens, UniProt P28482).
T1 construct: N-terminal 6-His fusion protein in E. coli and corresponding to aa 8-360; 6-His (N); made in house; host or cells: E. coli
The test is described as follows: ERK-2 Enzymatic Assay. Format: biochemical. The note with it: 5nM ERK-2 enzyme, 25µM ATP, S/T17 peptide substrate, single assay or mean of multiple assays. The gist of the method:
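Recombinant N-terminal 6-His human ERK-2 (aa 8-360, E. coli) was tested with fluorescent Omnia S/T17 peptide at ambient temperature. Fluorescence (ex 340/em 495 nm) was read every 50 s for ~30 min.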

The test system of another test is HCT116 cells. The test is described as follows: Cell Proliferation/Viability Assay (Cell Titer-Blue). It is filed as cell-based. The conditions noted are these: Homo sapiens, HCT-116, 3-day (72-hour) incubation, single assay or mean of multiple assays. As for the experimental part:
Cell Proliferation/Viability Assay
Viable cells after a 3-day (72-hour) incubation with ERK compounds were quantified using the Cell Titer-Blue Cell Viability Assay from Promega.
Materials and Methods: HCT116 cells were plated in 96 well micro-plates at a density of 1,000 cells/well. The cells were allowed to attach to micro-plate overnight at 37 °C/5% CO2. After overnight attachment, diluted compounds were then added to the cells at a final concentration of 0.5% DMSO. After 3 days (72 hours) at 37 °C/5% CO2, the number of viable cells was determined using the Cell Titer-Blue Cell Viability Assay from Promega. Briefly, Cell Titer-Blue reagent were added to the cells and incubated for 1 hour. Fluorescence (560nmexcitation/590nmemission) was then read using a fluorescence micro-plate reader. Background from high concentration Erk-inhibited wells was subtracted. Representative data is in TABLE III (infra). The reported IC50 may be from a single assay or the mean of multiple assays.

The subject of test [2] is PMA-stimulated P90RSK(Ser380) phosphorylation. The test is described as follows: Cellular P90RSK(Ser380) Phosphorylation Assay. The note with it: Homo sapiens; HepG2 cells, 1.5 h compound incubation, PMA 100ng/mL 30 min, normalized to GAPDH signal; single assay or mean of multiple assays. Format: cell-based. As for the experimental part: Cellular P90RSK(Ser380) Phosphorylation Assay
Inhibition of PMA-stimulated P90RSK(Ser380) phosphorylation was determined by the following in vitro cellular mechanistic assay, which comprises incubating cells with a compound for 1.5 h and quantifying fluorescent pP90RSK(Ser380) signal on fixed cells and normalizing to GAPDH signal.
Materials and Methods: HepG2 cells were obtained from ATCC and grown in DMEM supplemented with 10% fetal bovine serum. Cells were plated in 96-well plates at 35,000 cells/well and allowed to attach overnight at 37 °C/5% CO2. Diluted compounds were then added at a final concentration of 0.5% DMSO. After 1.5 h compound incubation, cells were stimulated with the addition of PMA (phorbol 12-myristate 13-acetate) at a final concentration of 100ng/mL; the PMA stimulation was a 30-min incubation at 37 °C/5% CO2. After the 30-minute PMA stimulation, cells were washed with PBS and fixed in 3.7% formaldehyde in PBS at room temperature for 15-20 min. This was followed by another wash in PBS and then permeabilization in 100% MeOH at room temperature for 10-15 min. Following the permeabilization incubation, cells were washed in PBS/0.05% Tween-20, followed by a block in Odyssey blocking buffer (LI-COR Biosciences) for at least 1 hour. Antibodies to phosphorylated P90RSK(Ser380) (Cell Signaling #9335, rabbit monoclonal) and GAPDH (Fitzgerald 10R-G109a, mouse monoclonal) were added to the cells and incubated overnight at 4 °C. pP90RSK(Ser380) antibody was used at a 1:250 dilution; GAPDH was used at a 1:10,000 dilution. After washing with PBS/0.05% Tween-20, the cells were incubated with fluorescently-labeled secondary antibodies (Anti-rabbit-Alexa Flour680, Invitrogen Cat#A21109; Anti-mouse-IRDye800CW, Rockland Inc. Cat#610-131-121) for 1 h. Both secondary antibodies were used at a 1:1000 dilution. Cells were then washed and analyzed for fluorescence at both wavelengths using the Odyssey Infrared Imaging System (LI-COR Biosciences). Phosphorylated P90RSK(Ser380) signal was normalized to GAPDH signal. Representative data is in TABLE III (infra). The reported IC50 may be from a single assay or the mean of multiple assays.

T1 sequence (P28482 8-360): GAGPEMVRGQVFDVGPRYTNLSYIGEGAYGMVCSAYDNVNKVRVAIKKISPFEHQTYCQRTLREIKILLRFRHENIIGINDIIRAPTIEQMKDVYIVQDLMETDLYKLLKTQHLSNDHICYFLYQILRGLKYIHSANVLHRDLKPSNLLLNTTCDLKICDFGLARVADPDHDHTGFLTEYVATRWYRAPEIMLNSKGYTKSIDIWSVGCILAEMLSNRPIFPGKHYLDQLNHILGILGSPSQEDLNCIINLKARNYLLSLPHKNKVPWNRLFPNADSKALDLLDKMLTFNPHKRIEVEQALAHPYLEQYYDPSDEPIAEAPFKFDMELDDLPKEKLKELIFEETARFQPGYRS

With `CC(C)Nc1ncc2ccc(C(=O)N[C@H](c3ccc(C(F)(F)F)c(F)c3)[C@@H]3CCCN3)cc2n1` (stereo in doubt) [Compound I-5, 2-isopropylamino-quinazoline-7-carboxylic acid [(S)-(3-fluoro-4-trifluoromethyl-phenyl)-(R)-pyrrolidin-2-yl-methyl]-amide], the figures for the IC50 (in test [1] (TABLE I); with HCT116 cells; in test [2]) were 0.0023 µM, 0.298 µM and 0.0117 µM, respectively.
As to `C[C@@H](CO)Nc1ncc2ccc(C(=O)N[C@H](c3ccc(Cl)c(F)c3)c3cnn(C)c3)cc2n1` (stereo in doubt) [Compound I-14, 2-((S)-2-hydroxy-1-methyl-ethylamino)-quinazoline-7-carboxylic acid [(R)-(4-chloro-3-fluoro-phenyl)-(1-methyl-1H-pyrazol-4-yl)-methyl]-amide], the IC50 with HCT116 cells was 0.875 µM; in test [2] it was 0.0598 µM.
Regarding `C[C@@H](CO)Nc1ncc2ccc(C(=O)NC(c3ccc(Cl)c(F)c3)c3cnn(C)c3)cc2n1` (stereo partly drawn) [Compound I-1, N-((4-chloro-3-fluorophenyl)(1-methyl-1H-pyrazol-4-yl)methyl)-2-((S)-1-hydroxypropan-2-ylamino)quinazoline-7-carboxamide], the values for the concentration for half-maximal inhibition (IC50) (in the test on HCT116 cells; in test [2]) were 2.4 µM and 0.0755 µM, respectively.
The like results for `Cn1cc(C(NC(=O)c2ccc3cnc(NC4CCOCC4)nc3c2)c2ccc(Cl)c(F)c2)cn1` (stereo not drawn) [Compound I-2, 2-(Tetrahydro-pyran-4-ylamino)-quinazoline-7-carboxylic acid [(4-chloro-3-fluoro-phenyl)-(1-methyl-1H-pyrazol-4-yl)-methyl]-amide] were, in that order, 0.851 µM and 0.0227 µM.
Turning to `O=C(N[C@@H](c1ccc(C(F)(F)F)c(F)c1)[C@@H]1CCCN1)c1ccc2cnc(NC3CCOCC3)nc2c1` [Compound I-3, 2-(Tetrahydropyran-4-ylamino)-quinazoline-7-carboxylic acid [(S)-(3-fluoro-4-tnfluoromethyl-phenyl)-(S)-pyrrolidin-2-yl-methyl]-amide], the IC50 in test [1] (TABLE I) came to 0.0021 µM; with HCT116 cells it was 0.272 µM; in test [2], 0.046 µM.
For `Cn1ccc([C@@H](NC(=O)c2cc(F)c3cnc(NC4CCOCC4)nc3c2)c2ccc(Cl)c(F)c2)n1` [Compound I-22, (S)-N-((4-chloro-3-fluorophenyl)(1-methyl-1H-pyrazol-3-yl)methyl)-5-fluoro-2-(tetrahydro-2H-pyran-4-ylamino)quinazoline-7-carboxamide], the half-maximal inhibitory concentration (IC50) came out at 0.0014 µM in test [1] (TABLE I), 0.274 µM in the test on HCT116 cells and 0.0235 µM in test [2].
In the same order, the values of `Cn1cc([C@@H](NC(=O)c2ccc3cnc(N[C@H]4CCOC[C@H]4F)nc3c2)c2ccc(Cl)c(F)c2)cn1` [Compound I-28, 2-((3S,4S)-3-fluoro-tetrahydropyran-4-ylamino)-quinazoline-7-carboxylic acid [(S)-(4-chloro-3-fluoro-phenyl)-(1-methyl-1H-pyrazol-4-yl)-methyl]-amide] are 0.0025 µM, 2.1 µM and 0.0874 µM.
As for `O=C(NC(c1ccc(Cl)c(F)c1)c1ncno1)c1ccc2cnc(NC3CCOCC3)nc2c1` (stereo not drawn) [Compound I-34, 2-(tetrahydro-pyran-4-ylamino)-quinazoline-7-carboxylic acid [(4-chloro-3-fluoro-phenyl)-[1,2,4]oxadiazol-5-yl-methyl]-amide], the IC50 stood at 0.0036 µM in test [1] (TABLE I), 5 µM in the test on HCT116 cells and 0.0791 µM in test [2].
In the same order, the values of `C[C@@H]1CC[C@H]([C@@H](NC(=O)c2ccc3cnc(NC4CCOCC4)nc3c2)c2ccc(Cl)c(F)c2)N1` [Compound I-35, 2-(tetrahydropyran-4-ylamino)-quinazoline-7-carboxylic acid [(S)-(4-chloro-3-fluoro-phenyl)-((2R,5R)-S-methyl-pyrrolidin-2-yl)-methyl]-amide] are 0.002 µM, 0.044 µM and 0.0053 µM.
With `O=C(N[C@@H](c1ccc(F)c(Cl)c1)[C@@]1(F)CCNC1)c1ccc2cnc(NC3CCOCC3)nc2c1` [Compound I-39], the values for the IC50 (in test [1] (TABLE I); in the test with HCT116 cells; in test [2]) were 0.0012 µM, 0.01 µM and 0.0174 µM, respectively.
As to `COc1ccc([C@H](NC(=O)c2cc(F)c3cnc(NC4(C)COC4)nc3c2)c2cnn(C)c2)cc1F` [Compound I-64, 5-Fluoro-2-(3-methyl-oxetan-3-ylamino)-quinazoline-7-carboxylic acid [(S)-(3-fluoro-4-methoxy-phenyl)-(1-methyl-1H-pyrazol-4-yl)-methyl]-amide], the results for the IC50 in test [1] (TABLE I) and in test [2] were 0.006 µM and 0.978 µM, respectively.
Turning to `COc1ccc(C(NC(=O)c2ccc3cnc(NC4CCOCC4)nc3c2)c2cnn(CCO)c2)cc1F` (stereo not drawn) [Compound I-67, N-((3-fluoro-4-methoxyphenyl) (1-(2-hydroxyethyl)-1H-pyrazol-4-yl)methyl)-2-(tetrahydro-2H-pyran-4-ylamino) quinazoline-7-carboxamide], the figures for the IC50 in test [1] (TABLE I) and in test [2] were 0.005 µM and 0.165 µM, respectively.
In the case of `COc1ccc([C@H](NC(=O)c2ccc3cnc(NC4CSC4)nc3c2)c2cnn(C)c2)cc1F` [II-5], the IC50 in test [1] (TABLE II) amounted to 0.013 µM; in test [2] it was 0.0505 µM.
For `COc1ccc([C@H](NC(=O)c2ccc3cnc(Nc4cc(C)nn4C)nc3c2)c2cnn(C)c2)cc1F` [II-18], the IC50 was determined as 0.0021 µM in test [1] (TABLE II) and 0.364 µM in test [2].
`Cn1cc([C@@H](NC(=O)c2ccc3cnc(Nc4ccnn4C)nc3c2)c2ccc(Cl)c(F)c2)cn1` [II-25]: the results for the IC50 in test [1] (TABLE II) and in test [2] were 0.0031 µM and 0.0199 µM, respectively.
In the same order, the values of `COc1ccc([C@H](NC(=O)c2ccc3cnc(Nc4ccnn4C)nc3c2)c2ccnn2C)cc1F` [II-38] are 0.0029 µM and 0.038 µM.

Source of the values: patent EP2739618B1, “QUINAZOLINE COMPOUNDS AS SERINE/THREONINE KINASE INHIBITORS” (Array Biopharma, Inc., priority 2011, dated 2013).
